Literature values as cited in patent publication EP1939174A1, “Inclusion complex of ezetimibe and a cyclodextrin and processes in the preparation thereof” (LEK Pharmaceuticals d.d., priority 2006, dated 2008).

## O=C1[C@H](CC[C@H](O)c2ccc(F)cc2)[C@@H](c2ccc(O)cc2)N1c1ccc(F)cc1 [Ezetimibe, 1-4(fluorophenyl)-3-(R)-[3-(4-fluorophenyl)-3-(S)-hydroxypropyl]-4-(S)-(4-hydroxyphenyl)-2-azetidinone]
In alcohols and acetone
  solubility in alcohols and acetone: freely soluble
In water
  solubility in water: practically insoluble
